Data on three molecules can be found in US4272437A, “Antibacterial agents, and 4-thio azetidinone intermediates” (priority 1979, dated 1981).

SMILES strings stand for the structures. ≈ marks a conversion by molar mass, not a printed value. Where two headings read alike, the source gives them in different places. A value given as a limit tells only on which side of the number the result lay.

One data set concerns Str. pneumoniae A-9585. The data set can be described thus: MIC, tube dilution, Streptococcus pneumoniae A9585. It counts as cell-based. The settings on record: overnight 37° C., Nutrient Broth; for MIC: Streptococcus pneumoniae, A9585, Str. pneumoniae A9585, read-out: Minimum Inhibitory Concentration (M.I.C.). The source says: (§1) Representative compounds of the present invention were subjected to in vitro antibiotic screening against a variety of microorganisms.

The test system of a further data set is Str. pyogenes A-9604. The data set can be described thus: MIC, tube dilution, Streptococcus pyogenes A9604. The format is cell-based. The following applies: overnight 37° C., Nutrient Broth; for MIC: Streptococcus pyogenes, A9604, Str. pyogenes A9604, read-out: Minimum Inhibitory Concentration (M.I.C.).
Source text: as §1

The test system of the next data set is Staph. aureus A-9537. The data set can be described thus: MIC, tube dilution, Staphylococcus aureus A9537. It counts as cell-based. The following applies: overnight 37° C., Nutrient Broth; for MIC: Staphylococcus aureus, A9537, Staph. aureus A9537, read-out: Minimum Inhibitory Concentration (M.I.C.).
Source text: as §1

Data set [1] relates to Staph. aureus A-9537 and 50% serum. Description: MIC, tube dilution, Staph. aureus A9537 + 50% serum. The following applies: overnight 37° C.; for MIC: Staphylococcus aureus, read-out: Minimum Inhibitory Concentration (M.I.C.). It counts as cell-based, Staphylococcus aureus.
Source text: as §1

The test system of data set [2] is Staph. aureus (Pen-Res) A-9606. The data set can be described thus: MIC, tube dilution, Staphylococcus aureus A9606 (Pen-Res). The format is cell-based. The following applies: Staphylococcus aureus, Staph. aureus A9606 (Pen-Res); overnight 37° C.; read-out: Minimum Inhibitory Concentration (M.I.C.).
Source text: as §1

Data set [3] deals with Staph. aureus (Meth-Res) A-15097. The data set can be described thus: MIC, tube dilution, Staphylococcus aureus A15097 (Meth-Res). The format is cell-based. The following applies: Staph. aureus A15097 (Meth-Res); overnight 37° C.
Source text: as §1

A further data set concerns Str. faecalis A-20688. Description: MIC, tube dilution, Streptococcus faecalis A20688. The format is cell-based. The following applies: overnight 37° C.
Source text: as §1

The subject of the next data set is E. coli A-15119. Description: MIC, tube dilution, Escherichia coli A15119. It counts as cell-based. The settings on record: overnight 37° C.
Source text: as §1

A further data set has as its system E. coli A-20341-1. The data set can be described thus: MIC, tube dilution, Escherichia coli A20341-1. It counts as cell-based.
Source text: as §1

The test system of a further data set is K. pneumoniae A-15130. The data set can be described thus: MIC, tube dilution, Klebsiella pneumoniae A15130. The format is cell-based. The settings on record: overnight 37° C.
Source text: as §1

For data set [4], the system named is Klebsiella species A20468. The data set can be described thus: MIC, tube dilution, Klebsiella species A20468. It counts as cell-based. The settings on record: Klebsiella species (K. pneumoniae) A20468, overnight 37° C.; for MIC: read-out: Minimum Inhibitory Concentration (M.I.C.).
Source text: as §1

Another data set concerns Pr. mirabilis A-9900. Description: MIC, tube dilution, Proteus mirabilis A9900. It counts as cell-based. The following applies: Proteus mirabilis, A9900, Proteus mirabilis A9900; overnight 37° C.; read-out: Minimum Inhibitory Concentration (M.I.C.).
Source text: as §1

Another data set concerns Pr. vulgaris A-9716. The data set can be described thus: MIC, tube dilution, Proteus vulgaris / Proteus mirabilis A9716. The format is cell-based, Proteus vulgaris (name changed to Proteus mirabilis). The following applies: Proteus vulgaris, A9716, Proteus vulgaris / Proteus mirabilis A9716; overnight 37° C.; read-out: Minimum Inhibitory Concentration (M.I.C.).
Source text: as §1

A further data set has as its system Pr. morganii A-15153. Description: MIC, tube dilution, Proteus morganii A15153. The format is cell-based. The settings on record: Morganella morganii, A15153, Proteus morganii A15153; overnight 37° C.; read-out: Minimum Inhibitory Concentration (M.I.C.).
Source text: as §1

In the next data set the test system is Ser. marcescens A-20019. Description: MIC, tube dilution, Serratia marcescens A20019. The following applies: Serratia marcescens, A20019, Serratia marcescens A20019; overnight 37° C.; read-out: Minimum Inhibitory Concentration (M.I.C.). It counts as cell-based.
Source text: as §1

A further data set has as its system Ent. cloacae A-9659. The data set can be described thus: MIC, tube dilution, Enterobacter cloacae A9659. The format is cell-based. The following applies: overnight 37° C.
Source text: as §1

The next data set has as its system Ent. cloacae A-9656. The data set can be described thus: MIC, tube dilution, Enterobacter cloacae A9656. The format is cell-based. The settings on record: overnight 37° C.; for MIC: read-out: Minimum Inhibitory Concentration (M.I.C.).
Source text: as §1

For the next data set, the system named is Ps. aeruginosa A-9843A. Description: MIC, tube dilution, Pseudomonas aeruginosa A9843A. It counts as cell-based. The settings on record: overnight 37° C.
Source text: as §1

A further data set relates to Ps. aeruginosa A-21213. Description: MIC, tube dilution, Pseudomonas aeruginosa A21213. It counts as cell-based. The settings on record: overnight 37° C., read-out: Minimum Inhibitory Concentration (M.I.C.).
Source text: as §1

A further data set relates to Proteus rettgeri A21203. The data set can be described thus: MIC, tube dilution, Proteus rettgeri A21203. The settings on record: Providencia rettgeri, A21203, Proteus rettgeri A21203; overnight 37° C.; read-out: Minimum Inhibitory Concentration (M.I.C.). It counts as cell-based.
Source text: as §1

A further data set has as its system S. aureus A9537. The data set can be described thus: In vivo protection of mice, lethal infection with S. aureus A9537. The following applies: Staphylococcus aureus, A9537, im, IM, 2 treatments, read-out: PD50. The protocol:
Representative compounds of the present invention were also tested in vivo in mice and their PD50 (dose of compound in mg/kg required to protect 50% of the treated mice against an otherwise lethal infection of a micro-organism) values determined with respect to the test organisms shown below.

The nature of data set [5]: Mouse blood levels after intramuscular administration. The format is in vivo. The following applies: average of 6 mice, read-out: Mouse blood level; for concentration at 10 min: 10 minutes after IM 40 mg/kg; for concentration at 20 min: 20 minutes after IM 40 mg/kg; for concentration at 0.5 h: 30 minutes after IM 40 mg/kg; for concentration at 0.75 h: 45 minutes after IM 40 mg/kg. The procedure: Mouse blood levels after intramuscular administration of representative compounds of the present invention were determined and are reported in the table below.

The subject of a further data set is Proteus vulgaris A21559. Description: MIC, tube dilution, Proteus vulgaris A21559. The format is cell-based. The following applies: Proteus vulgaris, A21559, Proteus vulgaris A21559; overnight 37° C.; read-out: Minimum Inhibitory Concentration (M.I.C.).
Source text: as §1

Data set [6] concerns Providencia stuartii A21205. The data set can be described thus: MIC, tube dilution, Providencia stuartii (Pr. rettgeri) A21205. The format is cell-based. The following applies: Providencia stuartii, A21205, read-out: Minimum Inhibitory Concentration (M.I.C.).
Source text: as §1

Where [7] appears, read: Escherichia coli, A203411; E. coli A20341-1; overnight 37° C.; read-out: Minimum Inhibitory Concentration (M.I.C.).

In the case of `NCCCC1=C(C(=O)O)N2C(=O)CC2S1` (stereo not shown) [Example 22, Sodium 2-Aminopropylpenem-3-carboxylate], the MIC amounted to 0.25 µg/mL in the data set on Str. pneumoniae A-9585; 2 µg/mL in the data set with Str. pyogenes A-9604; 2 µg/mL with Staph. aureus A-9537; 63 µg/mL in data set [1]; 63 µg/mL in [2]; 16 µg/mL with E. coli A-15119 (Escherichia coli, A15119, E. coli A15119, read-out: Minimum Inhibitory Concentration (M.I.C.)). The MIC was 125 µg/mL with E. coli A-20341-1 (setting [7]); 32 µg/mL with K. pneumoniae A-15130 (Klebsiella pneumoniae, A15130, K. pneumoniae A15130, read-out: Minimum Inhibitory Concentration (M.I.C.)); greater than 125 µg/mL in data set [4]; 16 µg/mL in the data set on Pr. mirabilis A-9900; 16 µg/mL with Pr. vulgaris A-9716; 32 µg/mL in the data set on Pr. morganii A-15153. The MIC stood at 32 µg/mL with Ser. marcescens A-20019; 16 µg/mL with Ent. cloacae A-9659 (Enterobacter cloacae, A9659, Enterobacter cloacae A9659, read-out: Minimum Inhibitory Concentration (M.I.C.)); 32 µg/mL with Ent. cloacae A-9656 (Enterobacter cloacae, A9656, Enterobacter cloacae A9656); 125 µg/mL in the data set on Ps. aeruginosa A-9843A (Pseudomonas aeruginosa, A9843A, read-out: Minimum Inhibitory Concentration (M.I.C.), Pseudomonas aeruginosa A9843A); 125 µg/mL with Ps. aeruginosa A-21213 (Pseudomonas aeruginosa A21213); 16 µg/mL in the data set on Proteus rettgeri A21203. Besides, the “Minimum Inhibitory Concentration (M.I.C.)” value (in data set [3]; with Str. faecalis A-20688 (Str. faecalis A20688)) was 125 µg/mL each time. In the data set with S. aureus A9537 (1.1 × 10^6 organisms), the ED50 was found to be 0.63 mg/kg. The concentration at 10 min in data set [5] amounted to 36500 ng/mL. Also, the concentration at 20 min in data set [5] amounted to 39900 ng/mL. Besides, the concentration at 0.5 h in [5] amounted to 31500 ng/mL. Besides, the concentration at 0.75 h in [5] amounted to 16500 ng/mL. For the same molecule, in [5] (60 minutes after IM 40 mg/kg), the concentration at 1 h came to 11500 ng/mL. For the same molecule, the concentration at 1.5 h in data set [5] (90 minutes after IM 40 mg/kg) is 5700 ng/mL. In data set [5] (120 minutes after IM 40 mg/kg), the concentration at 2 h stood at 3100 ng/mL.
`NCCCCCC1=C(C(=O)O)N2C(=O)C[C@H]2S1` [Example 87, 2-(5-Aminopentyl)-penem-3-carboxylic acid]: the MIC in the data set on Str. pneumoniae A-9585 amounted to 0.008 µg/mL (≈ 0.0312 µM); in the data set on Str. pyogenes A-9604 it was 0.008 µg/mL (≈ 0.0312 µM); with Staph. aureus A-9537, 0.016 µg/mL (≈ 0.0624 µM); in data set [1], 0.13 µg/mL; in data set [2], 4 µg/mL (≈ 15.6 µM); with Str. faecalis A-20688 (Enterococcus faecalis, A20688, Str. faecalis A20688, read-out: Minimum Inhibitory Concentration (M.I.C.)), 8 µg/mL (≈ 31.2 µM). In addition, the MIC in the data set on E. coli A-20341-1 (Escherichia coli, A203411, E. coli A20341-1; overnight 37° C.; read-out: Minimum Inhibitory Concentration (M.I.C.)) is 16 µg/mL (≈ 62.4 µM); in data set [4], greater than 125 µg/mL; in the data set with Pr. mirabilis A-9900 it was 4 µg/mL (≈ 15.6 µM); in the data set with Pr. morganii A-15153 it was 4 µg/mL (≈ 15.6 µM); in the data set with Ser. marcescens A-20019, 2 µg/mL (≈ 7.8 µM); in the data set with Ps. aeruginosa A-21213 (Pseudomonas aeruginosa, A21213, Pseudomonas aeruginosa A21213), greater than 125 µg/mL. Further, the MIC is 4 µg/mL (≈ 15.6 µM) in the data set with Proteus rettgeri A21203 and 16 µg/mL (≈ 62.4 µM) in the data set with Proteus vulgaris A21559. In addition, the “Minimum Inhibitory Concentration (M.I.C.)” value was found to be 32 µg/mL in data set [3]; 4 µg/mL in the data set with E. coli A-15119 (E. coli A15119); 8 µg/mL in the data set on K. pneumoniae A-15130 (K. pneumoniae A15130); 16 µg/mL in the data set on Ent. cloacae A-9659 (Enterobacter cloacae A9659); 8 µg/mL in the data set on Ent. cloacae A-9656 (Enterobacter cloacae A9656); 32 µg/mL with Ps. aeruginosa A-9843A (Pseudomonas aeruginosa A9843A). Besides, in the data set on S. aureus A9537 (1 × 10^6 organisms), the ED50 worked out at 0.12 mg/kg. For the same molecule, in data set [5], the concentration at 10 min was determined as 50300 ng/mL. The concentration at 20 min in data set [5] is 47300 ng/mL. Besides, the concentration at 0.5 h in data set [5] was 34600 ng/mL. Besides, in data set [5], the concentration at 0.75 h is 23300 ng/mL.
Take `CC1=C(C(=O)O)N2C(=O)C[C@H]2S1` [Preparation 4(-), (-)-2-Methylpenem-3-carboxylic Acid]: the “Minimum Inhibitory Concentration (M.I.C.)” value was 8 µg/mL with Str. pneumoniae A-9585 (Str. pneumoniae A9585); 8 µg/mL in the data set on Str. pyogenes A-9604 (Str. pyogenes A9604); 32 µg/mL in the data set with Staph. aureus A-9537 (Staph. aureus A9537); greater than 63 µg/mL in data set [1]; greater than 125 µg/mL in [4]. Besides, the MIC (with E. coli A-20341-1 (setting [7]); in data set [6]; in the data set with Ent. cloacae A-9656 (Enterobacter cloacae A9656)) was greater than 125 µg/mL throughout.
